Several values for one entry are separate records, joined by “and”; a condition that tells them apart may be missing. Equal entries are not always repeated. Inconclusive results and toxic doses are left out. The calls were made as follows: active = survival T/C of 150% or more; inactive = T/C below 125% in these data.
Test system: CD2F1 mice, L1210 leukemia ip, survival T/C
Assay: NCI In Vivo Anticancer Drug Screen. Data for tumor model L1210 Leukemia (intraperitoneal) in CD2F1 (CDF1) mice
Settings: endpoint: mean survival time, higher = longer survival
Method in brief: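 Vehicle-treated tumor-bearing mice served as controls (C) for compound-treated mice (T). Reported figure is T divided by C.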

[1] = dose: 25.0 mg/kg/injection, schedule: Q04DX003 (ip), vehicle: saline with Tween-80
[2] = dose: 50.0 mg/kg/injection, schedule: Q04DX003 (ip), vehicle: saline with Tween-80
[3] = dose: 100.0 mg/kg/injection, schedule: Q04DX003 (ip), vehicle: saline with Tween-80
[4] = dose: 200.0 mg/kg/injection, schedule: Q04DX003 (ip), vehicle: saline with Tween-80
[5] = dose: 50.0 mg/kg/injection, schedule: Q04DX003 (ip), vehicle: saline
[6] = dose: 100.0 mg/kg/injection, schedule: Q04DX003 (ip), vehicle: saline
[7] = dose: 200.0 mg/kg/injection, schedule: Q04DX003 (ip), vehicle: saline
[8] = dose: 50.0 mg/kg/injection, schedule: Q04DX002 (ip), vehicle: saline with Tween-80
[9] = dose: 100.0 mg/kg/injection, schedule: Q04DX002 (ip), vehicle: saline with Tween-80

Measured: T/C

Cc1cc(F)ccc1[NH-].Cc1cc(F)ccc1[NH-].[Cl][Pt+2][Cl]
inactive: dose: 12.5 mg/kg/injection, schedule: Q04DX003 (ip), vehicle: saline with Tween-80 106 % of control | [1] 101 % of control | [2] 91 % of control | [3] 95 % of control | [4] 89 % of control

COC(=O)/C(=C1/OC(=O)C(c2ccccc2)=C1O)c1ccccc1
inactive: [1] 91 % of control | [2] 100 % of control | [3] 105 % of control

O=[N+]([O-])c1cc2ccccc2c(O)c1O
inactive: dose: 25.0 mg/kg/injection, schedule: Q01DX009 (ip), vehicle: saline with Tween-80 102 % of control | dose: 50.0 mg/kg/injection, schedule: Q01DX009 (ip), vehicle: saline with Tween-80 108 % of control | [3] 91 % of control

O=c1[nH]c(=O)n(C2CC(O)C(CO)O2)cc1I (stereo not drawn)
inactive: dose: 50.0 mg/kg/injection, schedule: Q01DX007 (ip), vehicle: saline 110 % of control | dose: 50.0 mg/kg/injection, schedule: Q01DX009 (ip), vehicle: saline 106 % of control | dose: 50.0 mg/kg/injection, schedule: Q03DX003 (ip), vehicle: saline 104 % of control | [5] 101 % of control | dose: 100.0 mg/kg/injection, schedule: Q01DX007 (ip), vehicle: saline 117 % of control | dose: 100.0 mg/kg/injection, schedule: Q01DX009 (ip), vehicle: saline 108 % of control | dose: 100.0 mg/kg/injection, schedule: Q03DX003 (ip), vehicle: saline 107 % of control | [6] 106 % of control | dose: 200.0 mg/kg/injection, schedule: Q01DX007 (ip), vehicle: saline 108 % of control | dose: 200.0 mg/kg/injection, schedule: Q01DX009 (ip), vehicle: saline 111 % of control | dose: 200.0 mg/kg/injection, schedule: Q03DX003 (ip), vehicle: saline 115 % of control | [7] 106 % of control | dose: 500.0 mg/kg/injection, schedule: Q01DX009 (ip), vehicle: saline 107 % of control | dose: 1000.0 mg/kg/injection, schedule: Q01DX009 (ip), vehicle: saline 103 % of control

N/N=C(\N)c1ccccc1
inactive: dose: 100.0 mg/kg/injection, schedule: Q01DX001 (ip), vehicle: saline 117 % of control | dose: 200.0 mg/kg/injection, schedule: Q01DX001 (ip), vehicle: saline 123 % of control

CCOC(OCC)n1ncnc1NC(=S)NCc1ccccc1
inactive: dose: 12.5 mg/kg/injection, schedule: Q01DX001 (ip), vehicle: carboxymethylcellulose (CMC) 100 % of control | dose: 25.0 mg/kg/injection, schedule: Q01DX001 (ip), vehicle: carboxymethylcellulose (CMC) 95 % of control | dose: 50.0 mg/kg/injection, schedule: Q01DX001 (ip), vehicle: carboxymethylcellulose (CMC) 93 % of control | dose: 100.0 mg/kg/injection, schedule: Q01DX001 (ip), vehicle: carboxymethylcellulose (CMC) 108 % of control | dose: 200.0 mg/kg/injection, schedule: Q01DX001 (ip), vehicle: carboxymethylcellulose (CMC) 91 % of control

Nc1ncn[nH]1
inactive: dose: 200.0 mg/kg/injection, schedule: Q01DX009 (ip), vehicle: Klucel (hydroxypropylcellulose) (HPC) 95 % of control | dose: 400.0 mg/kg/injection, schedule: Q01DX009 (ip), vehicle: Klucel (hydroxypropylcellulose) (HPC) 106 % of control

N#CC1c2ccccc2C=CN1C(=O)OCc1ccccc1 (stereo not drawn)
inactive: dose: 100.0 mg/kg/injection, schedule: Q04DX003 (ip), vehicle: Klucel (hydroxypropylcellulose) (HPC) 91 % of control | dose: 200.0 mg/kg/injection, schedule: Q04DX003 (ip), vehicle: Klucel (hydroxypropylcellulose) (HPC) 110 % of control | dose: 400.0 mg/kg/injection, schedule: Q04DX003 (ip), vehicle: Klucel (hydroxypropylcellulose) (HPC) 106 % of control

O=C(O)/C=C(/C(=O)O)c1cccn1Cc1ccccc1
inactive: dose: 25.0 mg/kg/injection, schedule: Q04DX002 (ip), vehicle: saline with Tween-80 93 % of control | [8] 101 % of control | [9] 86 % of control and 87 % of control

CC(C)(C[P+](C)(c1ccccc1)c1ccccc1)c1ccccc1
inactive: [8] 98 % of control | [9] 102 % of control

COc1ccc(-c2ccc(-c3ccc(S(=O)(=O)c4ccc(-c5ccc(-c6ccc(OC)cc6)cc5)c(N)c4)cc3N)cc2)cc1
inactive: dose: 100.0 mg/kg/injection, schedule: Q01DX009 (ip), vehicle: saline with Tween-80 110 % of control | dose: 200.0 mg/kg/injection, schedule: Q01DX009 (ip), vehicle: saline with Tween-80 89 % of control | dose: 400.0 mg/kg/injection, schedule: Q01DX009 (ip), vehicle: saline with Tween-80 89 % of control

NNC(=O)c1cccc[n+]1[O-]
inactive: dose: 12.5 mg/kg/injection, schedule: Q01DX001 (ip), vehicle: water 98 % of control | dose: 25.0 mg/kg/injection, schedule: Q01DX001 (ip), vehicle: water 96 % of control | dose: 50.0 mg/kg/injection, schedule: Q01DX001 (ip), vehicle: water 93 % of control | dose: 100.0 mg/kg/injection, schedule: Q01DX001 (ip), vehicle: water 102 % of control

Cc1cc(C)c(C(=O)CN2CCOCC2)c(C)c1
inactive: [3] 98 % of control | [4] 101 % of control | dose: 400.0 mg/kg/injection, schedule: Q04DX003 (ip), vehicle: saline with Tween-80 95 % of control

COc1ccc(COc2ccc(Cl)cc2)cc1
inactive: dose: 75.0 mg/kg/injection, schedule: Q04DX002 (ip), vehicle: saline with Tween-80 87 % of control | dose: 150.0 mg/kg/injection, schedule: Q04DX002 (ip), vehicle: saline with Tween-80 98 % of control | dose: 300.0 mg/kg/injection, schedule: Q04DX002 (ip), vehicle: saline with Tween-80 106 % of control

Clc1ccc(C(c2ccccc2Cl)C(Cl)Cl)cc1 (stereo not drawn)
inactive: dose: 62.5 mg/kg/injection, schedule: Q01DX009 (sc), vehicle: steriod suspending solution 95 % of control and 106 % of control | dose: 125.0 mg/kg/injection, schedule: Q01DX009 (sc), vehicle: steriod suspending solution 98 % of control and 102 % of control | dose: 250.0 mg/kg/injection, schedule: Q01DX009 (sc), vehicle: steriod suspending solution 95 % of control and 105 % of control | dose: 500.0 mg/kg/injection, schedule: Q01DX009 (sc), vehicle: steriod suspending solution 101 % of control and 106 % of control

O=C1NC(=O)C2(CCN(CC3COc4ccccc4O3)CC2)N1c1ccccc1 (stereo not drawn)
inactive: dose: 50.0 mg/kg/injection, schedule: Q01DX001 (ip), vehicle: saline with Tween-80 96 % of control | dose: 100.0 mg/kg/injection, schedule: Q01DX001 (ip), vehicle: saline with Tween-80 101 % of control | dose: 200.0 mg/kg/injection, schedule: Q01DX001 (ip), vehicle: saline with Tween-80 96 % of control

Cc1cc(N(CCOS(C)(=O)=O)CCOS(C)(=O)=O)ccc1N=Nc1ccccc1
inactive: dose: 3.12 mg/kg/injection, schedule: Q01DX009 (ip), vehicle: Klucel (hydroxypropylcellulose) (HPC) 106 % of control | dose: 6.25 mg/kg/injection, schedule: Q01DX009 (ip), vehicle: Klucel (hydroxypropylcellulose) (HPC) 113 % of control | dose: 12.5 mg/kg/injection, schedule: Q01DX009 (ip), vehicle: Klucel (hydroxypropylcellulose) (HPC) 114 % of control and 124 % of control | dose: 25.0 mg/kg/injection, schedule: Q01DX009 (ip), vehicle: Klucel (hydroxypropylcellulose) (HPC) 101 % of control | dose: 50.0 mg/kg/injection, schedule: Q01DX009 (ip), vehicle: Klucel (hydroxypropylcellulose) (HPC) 95 % of control

C/C(=C\c1ccccc1)CCC(=O)O
inactive: [5] 100 % of control | [6] 103 % of control | [7] 97 % of control

O=C(O)CCCc1ccc(Cl)cc1
inactive: [6] 106 % of control | [7] 106 % of control | dose: 400.0 mg/kg/injection, schedule: Q04DX003 (ip), vehicle: saline 98 % of control

— PubChem BioAssay AID256 (DTP/NCI, 2004)
